Laboratory results as given in US7268128B2, “1,3,5-trisubstituted-5-phenyl and 5-pyridyl pyrazolopyrimidinone derivatives having PDE7 inhibiting action” (Ausbio Pharma Co., Ltd., priority 2001, dated 2007).
Where a name gives a salt, the structure may show the parent alone.

Target: T1, PDE7 (type VII phosphodiesterase) (Homo sapiens, UniProt Q13946)
T1 construct: endogenous in cells; host or cells: MOLT-4 (ATCC CRL-1582), soluble fraction, HiTrapQ anion-exchange fraction
Test: PDE7 inhibiting activity (3H-cAMP hydrolysis, active fraction from MOLT-4 cells)
Type: biochemical
Settings: PDE7 fraction from MOLT-4 cells, 0.064 μM cAMP, 10 μM rolipram present, 2 hours at 25° C.; read-out: IC50 values for phosphodiesterase inhibiting activities (PDE7)
Method in brief: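 PDE7 from MOLT-4 cell soluble fraction, HiTrapQ NaCl-gradient purified. Compounds reacted 2 h at 25° C in 20 mM tris-HCl pH 7.5, 1 mM MgCl2, 0.1 μCi 3H-cAMP (0.064 μM cAMP), 10 μM rolipram, 5′-nucleotidase; QAE-Sephadex-separated supernatant counted.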

T1 sequence (Q13946 whole entry): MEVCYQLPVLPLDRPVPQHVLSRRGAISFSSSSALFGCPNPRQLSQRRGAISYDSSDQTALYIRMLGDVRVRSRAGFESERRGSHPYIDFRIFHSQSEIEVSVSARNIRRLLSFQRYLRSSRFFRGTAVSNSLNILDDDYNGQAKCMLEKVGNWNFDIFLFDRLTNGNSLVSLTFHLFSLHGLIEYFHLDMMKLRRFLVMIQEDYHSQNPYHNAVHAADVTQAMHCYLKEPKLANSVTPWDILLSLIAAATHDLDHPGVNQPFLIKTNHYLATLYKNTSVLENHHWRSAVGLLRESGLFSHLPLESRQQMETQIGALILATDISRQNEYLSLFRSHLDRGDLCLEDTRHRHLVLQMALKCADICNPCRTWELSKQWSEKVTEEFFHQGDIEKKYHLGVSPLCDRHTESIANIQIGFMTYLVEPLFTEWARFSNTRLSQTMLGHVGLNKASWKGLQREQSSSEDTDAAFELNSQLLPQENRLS

| Structure (SMILES) | IC50 |
| --- | --- |
| CNCCCN(C)c1ccc(-c2nc3c(C)nn(C4CCCCC4)c3c(=O)[nH]2)c(OC)c1 [Example 111, 1-Cyclohexyl-5-(2-methoxy-4-{methyl[3-(methylamino)propyl]amino}phenyl)-3-methyl-1,6-dihydro-7H-pyrazolo[4,3-d]pyrimidin-7-one monofumarate] | ≤ 10 nM |
| COc1cc(N2CCCN(C)CC2)ccc1-c1nc2c(C)nn(C3CCCCC3)c2c(=O)[nH]1 [Example 112, 1-Cyclohexyl-5-[2-methoxy-4-(4-methyl-1,4-diazepan-1-yl)phenyl]-3-methyl-1,6-dihydro-7H-pyrazolo[4,3-d]pyrimidin-7-one] | ≤ 1000 nM |
| CCN(CCO)c1ccc(-c2nc3c(C)nn(C4CCCCC4)c3c(=O)[nH]2)c(OC)c1 [Example 115, 1-Cyclohexyl-5-{4-[(2-hydroxyethyl)(ethyl)amino]-2-methoxyphenyl}-3-methyl-1,6-dihydro-7H-pyrazolo[4,3-d]pyrimidin-7-one monohydrochloride] | ≤ 1000 nM |
| CCOc1cc(NCCOC)ccc1-c1nc2c(c(C3CCCCC3)nn2C)c(=O)[nH]1 [Example 117, 3-Cyclohexyl-6-{2-ethoxy-4-[(2-methoxyethyl)amino]phenyl}-1-methyl-1,5-dihydro-4H-pyrazolo[3,4-d]pyrimidin-4-one] | ≤ 10 nM |
| COc1cc(N2CCC(N(C)C=O)CC2)ccc1-c1nc2c(C)nn(C3CCCCC3)c2c(=O)[nH]1 [Example 118, 1-[4-(1-Cyclohexyl-3-methyl-7-oxo-6,7-dihydro-1H-pyrazolo[4,3-d]pyrimidin-5-yl)-3-methoxyphenyl]-4-piperidiny(methyl)formamide] | ≤ 1000 nM |
| COc1cc(N2CCC(N(C)C(C)=O)CC2)ccc1-c1nc2c(C)nn(C3CCCCC3)c2c(=O)[nH]1 [Example 119, N-{1-[4-(1-cyclohexyl-3-methyl-7-oxo-6,7-dihydro-1H-pyrazolo[4,3-d]pyrimidin-5-yl)-3-methoxyphenyl]-4-piperidiny}-N-methylacetamide] | ≤ 1000 nM |
| CCOc1cc(N2CCC(NC)CC2)ccc1-c1nc2c(C)nn(C3CCCCC3)c2c(=O)[nH]1 [Example 121, 1-Cyclohexyl-5-{2-ethoxy-4-[4-(methylamino)-1-piperidinyl]phenyl}-3-methyl-1,6-dihydro-7H-pyrazolo[4,3-d]pyrimidin-7-one] | ≤ 10 nM |
| COc1cc(C2=CCN(C)CC2)ccc1-c1nc2c(C)nn(C3CCCCC3)c2c(=O)[nH]1 [Example 123, 1-Cyclohexyl-5-[2-methoxy-4-(1-methyl-1,2,3,6-tetrahydro-4-pyridinyl)phenyl]-3-methyl-1,6-dihydro-7H-pyrazolo[4,3-d]pyrimidin-7-one] | ≤ 1000 nM |
| COc1cc(C2CCN(C)CC2)ccc1-c1nc2c(C)nn(C3CCCCC3)c2c(=O)[nH]1 [Example 124, 1-Cyclohexyl-5-[2-methoxy-4-(1-methyl-4-piperidinyl)phenyl]-3-methyl-1,6-dihydro-7H-pyrazolo[4,3-d]pyrimidin-7-one] | ≤ 1000 nM |
| COc1cc(N2CCCNCC2)ccc1-c1nc2c(C)nn(C3CCCCC3)c2c(=O)[nH]1 [Example 125, 1-Cyclohexyl-5-[4-(1,4-diazepan-1-yl)-2-methoxyphenyl]-3-methyl-1,6-dihydro-7H-pyrazolo[4,3-d]pyrimidin-7-one] | ≤ 10 nM |
| COc1cc(N2CCCN(C(C)=O)CC2)ccc1-c1nc2c(C)nn(C3CCCCC3)c2c(=O)[nH]1 [Example 126, 5-[4-(4-Acetyl-1,4-diazepan-1-yl)-2-methoxyphenyl]-1-cyclohexyl-3-methyl-1,6-dihydro-7H-pyrazolo[4,3-d]pyrimidin-7-one] | ≤ 1000 nM |
| CCN1CCCN(c2ccc(-c3nc4c(C)nn(C5CCCCC5)c4c(=O)[nH]3)c(OC)c2)CC1 [Example 127, 1-Cyclohexyl-5-[4-(4-ethyl-1,4-diazepan-1-yl)-2-methoxyphenyl]-3-methyl-1,6-dihydro-7H-pyrazolo[4,3-d]pyrimidin-7-one] | ≤ 1000 nM |
| CNC1CCN(c2cc(OC)c(-c3nc4c(C)nn(C5CCCCC5)c4c(=O)[nH]3)cc2F)CC1 [Example 129, 1-Cyclohexyl-5-{5-fluoro-2-methoxy-4-[4-(methylamino)-1-piperidinyl]phenyl}-3-methyl-1,6-dihydro-7H-pyrazolo[4,3-d]pyrimidin-7-one] | ≤ 1000 nM |
| CCOc1cc(N2CCCN(C)CC2)ccc1-c1nc2c(C)nn(C3CCCCC3)c2c(=O)[nH]1 [Example 130, 1-Cyclohexyl-5-[4-(4-methyl-1,4-diazepan-1-yl)-2-ethoxyphenyl]-3-methyl-1,6-dihydro-7H-pyrazolo[4,3-d]pyrimidin-7-one] | ≤ 1000 nM |
| COc1cc(N(C)CCN(C)C)ccc1-c1nc2c(c(C3CCCCC3)nn2C)c(=O)[nH]1 [Example 132, 3-Cyclohexyl-6-{4-[[2-(dimethylamino)ethyl](methyl)amino]-2-methoxyphenyl}-1-methyl-1,5-dihydro-4H-pyrazolo[3,4-d]pyrimidin-4-one monomethanesulfonate] | ≤ 10 nM |
| COc1cc(N2CCCNCC2)ccc1-c1nc2c(c(C3CCCCC3)nn2C)c(=O)[nH]1 [Example 134, 3-Cyclohexyl-6-[4-(1,4-diazepan-1-yl)-2-methoxyphenyl]-1-methyl-1,5-dihydro-4H-pyrazolo[3,4-d]pyrimidin-4-one monomethanesulfonate] | ≤ 10 nM |
| COc1cc(N2CCCN(C)CC2)ccc1-c1nc2c(c(C3CCCCC3)nn2C)c(=O)[nH]1 [Example 136, 3-Cyclohexyl-6-[2-methoxy-4-(4-methyl-1,4-diazepan-1-yl)phenyl]-1-methyl-1,5-dihydro-4H-pyrazolo[3,4-d]pyrimidin-4-one monomethanesulfonate] | ≤ 10 nM |
| CN1CCN(c2ccc(-c3nc4c(c(C5CCCCC5)nn4C)c(=O)[nH]3)c(OC(F)F)c2)CC1 [Example 139, 3-Cyclohexyl-6-[2-(difluoromethoxy)-4-(4-methyl-1-piperazinyl)phenyl]-1-methyl-1,5-dihydro-4H-pyrazolo[3,4-d]pyrimidin-4-one monomethanesulfonate] | ≤ 1000 nM |
| COc1cc(NC(N)=O)ccc1-c1nc2c(c(C3CCCCC3)nn2C)c(=O)[nH]1 [Example 140, N-[4-(3-cyclohexyl-1-methyl-4-oxo-4,5-dihydro-1H-pyrazolo[3,4-d]pyrimidin-6-yl)-3-methoxyphenyl]urea] | ≤ 10 nM |
| COc1cc(NS(C)(=O)=O)ccc1-c1nc2c(c(C3CCCCC3)nn2C)c(=O)[nH]1 [Example 142, N-[4-(3-cyclohexyl-1-methyl-4-oxo-4,5-dihydro-1H-pyrazolo[3,4-d]pyrimidin-6-yl)-3-methoxyphenyl]methanesulfonamide] | ≤ 10 nM |
| COc1cc(N2CCOC2=O)ccc1-c1nc2c(c(C3CCCCC3)nn2C)c(=O)[nH]1 [Example 143, 3-Cyclohexyl-6-[2-methoxy-4-(2-oxo-1,3-oxazolidin-3-yl)phenyl]-1-methyl-1,5-dihydro-4H-pyrazolo[3,4-d]pyrimidin-4-one] | ≤ 10 nM |
| COc1cc(N2CCNC2=O)ccc1-c1nc2c(c(C3CCCCC3)nn2C)c(=O)[nH]1 [Example 144, 3-Cyclohexyl-6-[2-methoxy-4-(2-oxo-1-imidazolidinyl)phenyl]-1-methyl-1,5-dihydro-4H-pyrazolo[3,4-d]pyrimidin-4-one] | ≤ 10 nM |
| CCOC(=O)Nc1ccc(-c2nc3c(c(C4CCCCC4)nn3C)c(=O)[nH]2)c(OC)c1 [Example 145, Ethyl 4-(3-cyclohexyl-1-methyl-4-oxo-4,5-dihydro-1H-pyrazolo[3,4-d]pyrimidin-6-yl)-3-methoxyphenylcarbamate] | ≤ 10 nM |
| COc1cc(N(C)C(C)=O)ccc1-c1nc2c(c(C3CCCCC3)nn2C)c(=O)[nH]1 [Example 146, N-[4-(3-cyclohexyl-1-methyl-4-oxo-4,5-dihydro-1H-pyrazolo[3,4-d]pyrimidin-6-yl)-3-methoxyphenyl]-N-methylacetamide] | ≤ 1000 nM |
| COc1cc(N(C)S(C)(=O)=O)ccc1-c1nc2c(c(C3CCCCC3)nn2C)c(=O)[nH]1 [Example 147, N-[4-(3-cyclohexyl-1-methyl-4-oxo-4,5-dihydro-1H-pyrazolo[3,4-d]pyrimidin-6-yl)-3-methoxyphenyl]-N-methylmethanesulfonamide] | ≤ 1000 nM |
| COc1cc(NC(=O)N2CCOCC2)ccc1-c1nc2c(c(C3CCCCC3)nn2C)c(=O)[nH]1 [Example 148, N-[4-(3-cyclohexyl-1-methyl-4-oxo-4,5-dihydro-1H-pyrazolo[3,4-d]pyrimidin-6-yl)-3-methoxyphenyl]-4-morpholinecarboxamide] | ≤ 10 nM |
| CNC1CCN(c2ccc(-c3nc4c(c(C5CCCCC5)nn4C)c(=O)[nH]3)c(OC)c2)CC1 [Example 150, 3-Cyclohexyl-6-{2-methoxy-4-[4-(methylamino)-1-piperidinyl]phenyl}-1-methyl-1,5-dihydro-4H-pyrazolo[3,4-d]pyrimidin-4-one monomethanesulfonate] | ≤ 10 nM |
| COc1cc(N2CCN(C)C2=O)ccc1-c1nc2c(c(C3CCCCC3)nn2C)c(=O)[nH]1 [Example 152, 3-Cyclohexyl-6-[2-methoxy-4-(3-methyl-2-oxo-1-imidazolidinyl)phenyl]-1-methyl-1,5-dihydro-4H-pyrazolo[3,4-d]pyrimidin-4-one] | ≤ 10 nM |
| COc1cc(N2CCC(N(C)C)CC2)ccc1-c1nc2c(c(C3CCCCC3)nn2C)c(=O)[nH]1 [Example 154, 3-Cyclohexyl-6-{4-[4-(dimethylamino)-1-piperidinyl]-2-methoxyphenyl}-1-methyl-1,5-dihydro-4H-pyrazolo[3,4-d]pyrimidin-4-one monomethanesulfonate] | ≤ 10 nM |
| COc1cc(N2CCCS2(=O)=O)ccc1-c1nc2c(c(C3CCCCC3)nn2C)c(=O)[nH]1 [Example 155, 3-Cyclohexyl-6-[4-(1,1-dioxido-2-isothiazolidinyl)-2-methoxyphenyl]-1-methyl-1,5-dihydro-4H-pyrazolo[3,4-d]pyrimidin-4-one] | ≤ 10 nM |
